Read-outs that look alike come from different tables or passages of the source.

Data set [1] relates to HBV. The data set is described as follows: anti-HBV activity in stable transfected HepG2.2.15 cell line, HBV DNA from secreted virions by realtime PCR. Format: cell-based, Hepatitis B virus. To be noted: read-out: HBV-HepG2 2.15 EC50.
In data set [2] the test system is HBV. The data set can be described thus: anti HBV activity in HepG2.117 cell line (Tet-off, inducibly HBV producing), intracellular HBV DNA by realtime PCR. Format: cell-based, Hepatitis B virus. The following applies: read-out: HepG2 117 EC50.
A short description of data set [3]: Cytotoxicity in HepG2 cells incubated 4 days, Resazurin assay. To be noted: human, HepG2 4 days CC50, HepG2 cells.
The nature of data set [4]: Cytotoxicity in HepG2 cells using CellTiter-Blue, same incubation period as HepG2.2.15 assay. Format: cell-based. The following applies: human. The protocol:
Cytotoxicity of the compounds was tested in HepG2 cells using CellTiter-Blue, with the same incubation period and dose range as in the HepG2.2.15 assay.
On the technique in general: Alamar Blue is a resazurin reagent that responds to reducing activity.

Setting [5] is: Hepatitis B virus, HepG2.2.15, 144 h, HepG2.2.15 cells, 6 days of treatment, secreted virion HBV DNA.
Where [6] appears, read: Hepatitis B virus, HepG2.117, 72 h, HepG2.117 cells, 3 days of treatment, intracellular HBV DNA.
Setting [7] is: HepG2.2.15 cells, 6 days of treatment, secreted virion HBV DNA.
Where [8] appears, read: HepG2.117 cells, 3 days of treatment, intracellular HBV DNA.
Where [9] appears, read: HepG2 cells, 6 days, CellTiter-Blue, read-out: HepG2 6 days CC50.
Where [10] appears, read: Hepatitis B virus, HepG2.2.15, 144 h.
The mark [11] stands for this setting: Hepatitis B virus, HepG2.117, 72 h.

Regarding `COC(=O)C1=C(C)NC(c2nccs2)=NC1(C)c1ccc(F)c(F)c1` (racemic) [Compound 155], the EC50 with HBV [1] (setting [5]) is 0.744 µM; in the data set with HBV [2] (setting [6]), 14 µM.
Regarding `COC(=O)C1=C(C)NC(c2ncccc2F)=NC1(C)c1ccc(F)c(F)c1` (racemic) [Compound 158], the CC50 at 4 days in data set [3] is > 25 µM. The EC50 in the data set with HBV [2] (setting [6]) was 4.56 µM.
Regarding `COC(=O)C1=C(C)NC(SC)=NC1(C)c1ccc(F)c(F)c1` (racemic) [Compound 160], the EC50 stood at 0.717 µM with HBV [1] (setting [5]) and 23.7 µM in the data set on HBV [2] (setting [6]). The CC50 at 4 days in data set [3] was > 25 µM.
With `COC(=O)C1=C(C)NC(c2ncc(F)cc2F)=NC1(C)c1ccc(F)c(F)c1` (single isomer, unassigned) [Compound 132a], the EC50 in the data set with HBV [1] (setting [5]) was > 100 µM; with HBV [2] (setting [6]), > 25 µM. This compound yielded a CC50 at 4 days in data set [3] of 21.1 µM.
Take `COC(=O)C1=C(C)NC(c2ncc(F)cc2F)=NC1(c1ccc(F)c(F)c1)C(F)F` (single isomer, unassigned) [Compound 151a]: the EC50 was > 100 µM in the data set on HBV [1] (setting [7]) and > 25 µM in the data set on HBV [2] (setting [8]). Moreover, in data set [3], the CC50 at 4 days was > 25 µM.
As for `COC(=O)C1=C(C)NC(c2nccs2)=NC1(C)c1ccc(F)c(F)c1` (single isomer, unassigned) [Compound 155a], the figures for the EC50 with HBV [1] (setting [7]) and in the data set on HBV [2] (setting [6]) were 0.983 µM and 17.1 µM, respectively.
Take `COC(=O)C1=C(C)NC(c2nccs2)=NC1(C)c1ccc(F)c(F)c1` (single isomer, unassigned) [Compound 155b]: the EC50 was > 100 µM with HBV [1] (setting [7]) and > 25 µM with HBV [2] (setting [8]).
Regarding `COC(=O)C1=C(C)NC(c2ncccc2F)=NC1(C)c1ccc(F)c(F)c1` (single isomer, unassigned) [Compound 158a], the CC50 at 4 days in data set [3] is > 25 µM. Moreover, the EC50 in the data set with HBV [2] (setting [8]) came out at 2.44 µM.
As for `COC(=O)C1=C(C)NC(c2ncccn2)=NC1(C)c1ccc(F)c(F)c1` (single isomer, unassigned) [Compound 159a], the results for the EC50 in the data set on HBV [1] (setting [7]) and with HBV [2] (setting [6]) were 37.5 µM and 25 µM, respectively. Besides, the CC50 at 4 days in data set [3] is > 25 µM.
For `COC(=O)C1=C(C)NC(SC)=NC1(C)c1ccc(F)c(F)c1` (single isomer, unassigned) [Compound 160a], the EC50 with HBV [1] (setting [7]) was > 50 µM; in the data set on HBV [2] (setting [8]), > 25 µM. Further, the CC50 at 4 days in data set [3] was > 25 µM.
With `COC(=O)C1=C(C#N)NC(c2ncc(F)cc2F)=NC1(C)c1ccc(F)c(F)c1` (single isomer, unassigned) [Compound 163a], the figures for the EC50 with HBV [1] (setting [5]) and in the data set on HBV [2] (setting [6]) were 69.5 µM and > 25 µM, respectively. In addition, the 50% cytotoxic concentration (CC50) at 4 days in data set [3] was > 25 µM.
For the compound `COC(=O)C1=C(C)NC(c2ncc(F)cc2F)=NC1(C)c1ccc(F)c(F)c1` (stereo not drawn) [132b (−)-camphanic acid], in the data set with HBV [1] (setting [7]), the EC50 was found to be 0.489 µM.
For the compound `CCOC(=O)C1=C(C#N)NC(c2ccccn2)=NC1(C)c1ccc(F)cc1` (stereo not shown) [Compound 5], in the data set with HBV [1] (setting [5]), the EC50 was > 100 µM. In data set [4] (setting [9]), the CC50 at 6 days is > 100 µM.
As to `CCOC(=O)C1=C(C)NC(c2ccccn2)=NC1(C)c1ccc(F)cc1` (stereo not shown) [Compound 6], the EC50 in the data set on HBV [1] (setting [5]) was > 25 µM. Moreover, the CC50 at 6 days in data set [4] (setting [9]) was > 25 µM.
For the compound `CCOC(=O)C1=C(CN2CCCC2)NC(c2ccccn2)=NC1(C)c1ccc(F)cc1` (stereo not shown) [Compound 7], the EC50 in the data set with HBV [1] (setting [5]) was > 100 µM. Further, the CC50 at 6 days in data set [4] (setting [9]) stood at 13.4 µM.
Taken in the same sequence, the figures for `CCOC(=O)C1=C(CN2CCCCC2)NC(c2ccccn2)=NC1(C)c1ccc(F)cc1` (stereo not shown) [Compound 9] were > 100 µM and 62.4 µM.
On to `CCOC(=O)C1=C(C(F)(F)C(F)(F)F)NC(c2ccccn2)=NC1(C)c1ccc(F)cc1` (stereo not shown) [Compound 11], for which the EC50 in the data set with HBV [1] (setting [5]) was > 100 µM. Further, the CC50 at 6 days in data set [4] (setting [9]) was > 100 µM.
`CCOC(=O)C1=C(C)NC(c2nccs2)=NC1(C)c1ccc(F)c(Cl)c1` (stereo not shown) [Compound 21]: the EC50 in the data set on HBV [1] (setting [5]) turned out to be 12.7 µM. Also, the CC50 at 6 days in data set [4] (setting [9]) amounted to 17.5 µM.
Consider `CCOC(=O)C1=C(C)NC(c2ccccn2)=NC1(c1ccc(F)cc1)C(F)(F)F` (stereo not shown) [Compound 35], for which the EC50 in the data set with HBV [1] (setting [5]) was > 100 µM. Also, in data set [4] (setting [9]), the CC50 at 6 days was found to be 68.1 µM.
As for `CCOC(=O)C1=C(C)NC(c2ccccn2)=NC12CCc1cc(F)ccc12` (stereo not shown) [Compound 40], the EC50 in the data set on HBV [1] (setting [5]) stood at 14 µM. Further, in data set [4] (HepG2 6 days CC50), half-maximal cytotoxicity (CC50 at 6 days) was put at 77 µM.
Consider `N#CC1=C(CN2CCOCC2)NC(c2ccccn2)=NC12CCCc1ccccc12` (stereo not shown) [Compound 61], for which the EC50 with HBV [1] (setting [5]) was 18 µM. In addition, in data set [4] (setting [9]), the CC50 at 6 days is > 100 µM.
Take `COC(=O)C1=C(C)NC(c2ncc(F)cc2C)=NC12CCCc1cc(F)ccc12` (stereo not shown) [Compound 81]: the EC50 with HBV [1] (setting [5]) turned out to be 19.9 µM. Moreover, the CC50 at 6 days in data set [4] (HepG2 6 days CC50) was > 50 µM.
Regarding `COC(=O)C1=C(C)NC(c2ncc(F)cc2F)=NC1(C)c1ccc(F)c(F)c1` (stereo not shown) [Compound 132b], the values for the EC50 in the data set on HBV [1] (setting [10]) and with HBV [2] (setting [11]) were 0.784 µM and 0.474 µM, respectively. The CC50 at 4 days in data set [3] was > 25 µM.
On to `COC(=O)C1=C(C)NC(c2ccc(F)cn2)=NC1(C)c1ccc(F)c(F)c1` (stereo not shown) [Compound 133], for which the EC50 with HBV [1] (setting [10]) was 17.3 µM; in the data set with HBV [2] (setting [11]) it was 4.33 µM. Also, the CC50 at 4 days in data set [3] was > 25 µM.
Regarding `COC(=O)C1=C(C2CC2)NC(c2ncc(F)cc2F)=NC1(C)c1ccc(F)c(F)c1` (stereo not shown) [Compound 142], the EC50 in the data set with HBV [1] (setting [5]) was 11.5 µM; in the data set on HBV [2] (setting [6]) it was 3.37 µM. The CC50 at 4 days in data set [3] was > 25 µM.
Turning to `COC/C=C/C1=C(C(=O)OC)C(C)(c2ccc(F)c(F)c2)N=C(c2ncc(F)cc2F)N1` (stereo not shown) [Compound 147], the values for the EC50 with HBV [1] (setting [5]) and with HBV [2] (setting [6]) were 2.73 µM and 3.17 µM, respectively. In addition, the CC50 at 4 days in data set [3] is > 25 µM.
In the case of `COC(=O)C1=C(C)NC(c2ncc(F)cc2F)=NC1(C)c1ccc(F)c(Cl)c1` (stereo not shown) [Compound 148], half-maximal cytotoxicity in data set [3] (CC50 at 4 days) was put at 17.2 µM. The EC50 with HBV [2] (setting [6]) was > 25 µM.
Consider `COC(=O)C1=C(C)NC(c2ncc(F)cc2F)=NC1(C)c1ccc(F)c(C)c1` (stereo not shown) [Compound 149], for which the EC50 with HBV [1] (setting [5]) stood at 23.8 µM; in the data set on HBV [2] (setting [6]), 3.26 µM. In addition, the half-maximal cytotoxic concentration (CC50) at 4 days in data set [3] is > 25 µM.
With `COC(=O)C1=C(CN2CCOCC2)NC(c2ncc(F)cc2F)=NC1(C)c1ccc(F)c(Cl)c1` (stereo not shown) [Compound 150], the EC50 with HBV [1] (setting [5]) turned out to be 1.35 µM; in the data set on HBV [2] (setting [6]) it was 0.694 µM. Further, in data set [3], the CC50 at 4 days was > 25 µM.
On to `COCC1=C(C(=O)OC)C(C)(c2ccc(F)c(F)c2)N=C(c2ncc(F)cc2F)N1` (stereo not shown) [Compound 152], for which the EC50 turned out to be 3.38 µM in the data set with HBV [1] (setting [5]) and 2.88 µM in the data set on HBV [2] (setting [6]). Besides, the CC50 at 4 days in data set [3] is > 25 µM.
In the case of `C=CC1=C(C(=O)OC)C(C)(c2ccc(F)c(F)c2)N=C(c2ncc(F)cc2F)N1` (stereo not shown) [Compound 153], the figures for the EC50 in the data set on HBV [1] (setting [5]) and in the data set on HBV [2] (setting [6]) were 12.9 µM and 3.31 µM, respectively. Moreover, in data set [3], the CC50 at 4 days is > 25 µM.
As to `COC(=O)C1=C(C)NC(c2ncc(F)cc2C)=NC1(C)c1ccc(F)c(F)c1` (stereo not shown) [Compound 154], the EC50 in the data set on HBV [1] (setting [5]) was 27.5 µM; with HBV [2] (setting [6]), 17.6 µM. For the same compound, the CC50 at 4 days in data set [3] is > 25 µM.
Regarding `COC(=O)C1=C(C)NC(c2ncc(F)cc2F)=NC1(C)c1ccc(Cl)c(F)c1` (stereo not shown) [Compound 156], the figures for the EC50 in the data set on HBV [1] (setting [5]) and with HBV [2] (setting [6]) were 1.11 µM and 0.669 µM, respectively. In addition, the CC50 at 4 days in data set [3] is > 25 µM.
On to `COC(=O)C1=C(C)NC(c2ncc(F)cc2F)=NC1(C)c1ccc(C)c(F)c1` (stereo not shown) [Compound 157], for which the figures for the EC50 in the data set on HBV [1] (setting [5]) and with HBV [2] (setting [6]) were 9.52 µM and 3.06 µM, respectively. In data set [3], the CC50 at 4 days is > 25 µM.
`COC(=O)C1=C(C)NC(c2cnccn2)=NC1(C)c1ccc(F)c(F)c1` (stereo not shown) [Compound 161]: the EC50 with HBV [2] (setting [6]) was > 25 µM.
Regarding `COC(=O)C1=C(C)NC(c2nccn2C)=NC1(C)c1ccc(F)c(F)c1` (stereo not shown) [Compound 162], the EC50 in the data set on HBV [1] (setting [5]) and in the data set on HBV [2] (setting [6]) was > 25 µM each time. Moreover, the CC50 at 4 days in data set [3] is > 25 µM.

As a reminder, the EC50 is the concentration at which the effect is half-maximal. Broadly, the CC50 is the concentration that lowers cell viability or growth by half.

These data come from patent US9233933B2, “4,4-disubstituted-1,4-dihydropyrimidines and the use thereof as medicaments for the treatment of hepatitis B” (priority 2012, dated 2016).
